Reference: US20030077653A1, “Method for the identification of active site protease inactivators” (The University of Georgia Research Foundation, Inc., priority 2000, published 2003)
Starred links: 1 amine or outer side, 2 acyl side, 3 side chain; linkers in the order of their positions; H or OH if unused. Residues, ends and D or L forms follow the SMILES beside them. *: point of attachment. AFC = O=c1cc(C(F)(F)F)c2ccc(N*)cc2o1; Morpholide = C1CN(*)CCO1; Cbz = O=C(OCc1ccccc1)*; CO = O=C([*:1])[*:2]; CH2F = FC*

Assays:
[1] = biological target: purified Taenia solium cysteine protease; assay: Competitor assay: vehicle inhibition of cleavage of high Vmax AFC substrate cocktails (Step III); format: biochemical; details: preliminary results, in comparison to the battery of substrates
Method: (We employed “Vmax” here although Kcat could also be used). Due to the lower number of substrates, a percentage was not chosen for the “BOTTOM %” substrates. Alternately, all substrates which were not cleaved as determined by a value of 10 μM/hr or less, were chosen to be tested in this step for competitive ability. From this point forth, the term “vehicle” will represent low Vmax substrates that were capable of inhibiting cleavage of the percent cocktails. In this instance, we tested for “vehicles” which inhibited cleavage of the TOP 1.4% cocktail (they were delivered into the active site). Based upon our results from Step II, the top 1.4% cocktail was composed of Z-Phe-Arg-AFC, the highest cleaved substrate.
The experiment began with a competitor test between the noncleaved low Vmax substrates and the highest Vmax substrate, Z-Phe-Arg-AFC. Concentrations were varied between the low Vmax substrate and Z-Phe-Arg-AFC, as described above under “refinement of assay” until a relative inhibition profile was obtained.
The mixture was allowed to equilibrate for a period of 30 minutes. Finally, active purified enzyme was added to the tubes at a concentration which was always 50 times less than the concentration of the high and low Vmax substrates, in order to insure saturation conditions. This concentration varied from purification to purification and the amount added depended upon the yield and specific activity of the purified protease.
Positive controls were set up similarly as described for test controls, except that solvent was added in substitution for the low Vmax substrate (in a volume equal to the low Vmax volume addition). All of the substrates could be dissolved in dimethylsulfoxide (DMSO), and therefore, this was the solvent of choice. Negative controls were set up by adding the low Vmax and the high Vmax substrate in a tube without the protease. All potential non-proteolytic induced liberation of AFC was therefore controlled for in this tube (a feature which also insured stability of the AFC substrates, since these substrates will freely liberate AFC when unstable). A tube set will be established for this negative control.
All controls were set up in triplicate, and experiments repeated a minimum of five times. The assays were incubated at 37° C., for 18 hours overnight.
Percent inhibition was calculated as: [formula]
A 2.9% cocktail of the high Vmax substrates was made. This was composed of Z-FR-AFC and the second most cleaved substrate, Z-FAR-AFC. The vehicles promoted from the initial screenings above were again tested for competitive inhibition ability with the new cocktails. Their concentrations were set identically to those which were “fixed” in the previous protocols. […]

Taenia crassiceps cysts = assay: Short-term prophylactic protection of BALB/c mice from cysticercosis infection; format: in vivo; details: pre-injected two days, 10 T. crassiceps cysts/mouse, dosed daily four weeks, intraperitoneal; vs untreated controls
Method: FIG. 8. […] Each treated mouse was pre-injected intraperitoneally with inhibitor for two days. During treatment phase, each treated mouse received 1.48×10^−2 μg/μl of N2 daily for three weeks and every other day during the last week. Injections were carried out in 150 μl of dimethyl sulfoxide for each mouse. Both treated groups and positive controls were challenged intraperitoneally with 10 Taenia crassiceps cysts in 200 μl 0.15M PBS at the time of initial infection. After one month of infection, both groups were euthanized and cysts removed by washing with sterile 0.15M PBS. A minimum of two attached cysts were scored as multilobed (ML). […] (B) Graphically represents the effect of protease inhibitor treatment of BALB/c mice challenged with Taenia crassiceps cysts over a long-term period. Mice were divided into treated and untreated groups (5 mice/group).Each mouse in the treated group was pre-injected intraperitoneally with inhibitor for two days. […] Cysts were then counted by visual inspection. […]
Based upon the premise that the cyst wall cysteine protease may serve a critical finction to the life cycle of the Taenia cyst, we tested our most efficacious inhibitors, LLL-FMK and LLY-FMK (K-Pyr was used as a control), for their abilities to protect mice from cysticercosis infection. […] After one month, the mice were euthanized and the cysts counted. […]

| SMILES | Ki of vehicles (ranking; values not reported) [1] | % Prophylactic protection of BALB/c mice (Taenia crassiceps cysts) [%] |
| --- | --- | --- |
| CC(C)C[C@H](NC(=O)N1CCOCC1)C(=O)N[C@@H](Cc1ccc(O)cc1)C(=O)Nc1ccc2c(C(F)(F)F)cc(=O)oc2c1 [Mu-LY-AFC, Mu-Leu-Tyr-AFC] ({Morpholide-CO}-Leu-Tyr-{AFC}) | lowest Ki values |  |
| CC(C)C[C@H](NC(=O)[C@H](CC(C)C)NC(=O)[C@H](CC(C)C)NC(=O)OCc1ccccc1)C(=O)CF [Z-LLL-FMK, Z-Leu-Leu-Leu-fluoromethylketone] (Cbz-Leu-Leu-Leu-CH2F) |  | 100 |
